Source: ChEMBL document CHEMBL1201862, “PubChem BioAssay data set” (2004)
Active and inactive are the calls of the source.

Legend:
[1] = biological target: T1, Histone-lysine N-methyltransferase NSD2 (Homo sapiens, UniProt O96028); type: biochemical
T1 sequence (O96028 whole entry): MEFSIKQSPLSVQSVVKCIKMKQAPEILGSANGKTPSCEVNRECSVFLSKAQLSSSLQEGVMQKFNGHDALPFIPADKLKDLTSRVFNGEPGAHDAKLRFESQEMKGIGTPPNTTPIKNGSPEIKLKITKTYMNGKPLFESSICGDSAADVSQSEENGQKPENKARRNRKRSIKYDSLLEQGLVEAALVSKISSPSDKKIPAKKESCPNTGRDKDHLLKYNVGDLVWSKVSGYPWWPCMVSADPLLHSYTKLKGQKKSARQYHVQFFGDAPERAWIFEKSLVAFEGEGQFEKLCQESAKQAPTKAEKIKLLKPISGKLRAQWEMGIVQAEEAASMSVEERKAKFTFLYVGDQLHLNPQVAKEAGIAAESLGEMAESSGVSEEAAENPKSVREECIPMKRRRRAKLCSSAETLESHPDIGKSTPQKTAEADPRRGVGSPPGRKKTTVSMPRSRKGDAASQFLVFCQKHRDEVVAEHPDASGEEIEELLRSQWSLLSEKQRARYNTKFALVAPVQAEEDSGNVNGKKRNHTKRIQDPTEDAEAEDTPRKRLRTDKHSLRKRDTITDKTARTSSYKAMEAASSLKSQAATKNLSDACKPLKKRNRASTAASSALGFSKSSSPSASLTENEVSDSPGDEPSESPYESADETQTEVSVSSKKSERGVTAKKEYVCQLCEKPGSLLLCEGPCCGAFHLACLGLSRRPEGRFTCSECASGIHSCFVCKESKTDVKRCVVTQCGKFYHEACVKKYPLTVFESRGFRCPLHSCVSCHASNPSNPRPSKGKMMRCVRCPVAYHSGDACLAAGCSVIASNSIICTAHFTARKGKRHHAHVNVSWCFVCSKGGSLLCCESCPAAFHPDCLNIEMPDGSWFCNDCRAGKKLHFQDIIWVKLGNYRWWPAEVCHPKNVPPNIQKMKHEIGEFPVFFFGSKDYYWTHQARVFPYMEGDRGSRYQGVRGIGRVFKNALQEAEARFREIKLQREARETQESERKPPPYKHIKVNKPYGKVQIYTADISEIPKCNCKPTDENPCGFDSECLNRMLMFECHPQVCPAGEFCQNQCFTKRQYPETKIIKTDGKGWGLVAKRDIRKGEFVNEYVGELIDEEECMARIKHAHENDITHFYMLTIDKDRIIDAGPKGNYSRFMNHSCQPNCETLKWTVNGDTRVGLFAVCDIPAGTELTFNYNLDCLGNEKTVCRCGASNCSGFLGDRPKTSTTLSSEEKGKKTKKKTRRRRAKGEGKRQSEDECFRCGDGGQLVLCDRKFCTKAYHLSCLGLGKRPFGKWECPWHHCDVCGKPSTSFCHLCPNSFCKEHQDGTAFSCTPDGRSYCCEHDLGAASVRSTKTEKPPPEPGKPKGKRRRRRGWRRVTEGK

Large T antigen = Large T antigen (Simian virus 40, UniProt P03070); type: functional, Betapolyomavirus macacae;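 note: Confirmatory-stage PubChem screen for compounds that inhibit SV40 T antigen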
Aminopeptidase N = biological target: T2, Aminopeptidase N (Plasmodium falciparum FcB1/Columbia, UniProt O96935); assay: P. falciparum M1AAP inhibitors, biochemical, fluorogenic H-Leu-NHMec substrate, 1536-well (AID 1445); design: species or system Plasmodium falciparum 3D7, 3D7
T2 sequence (O96935 whole entry): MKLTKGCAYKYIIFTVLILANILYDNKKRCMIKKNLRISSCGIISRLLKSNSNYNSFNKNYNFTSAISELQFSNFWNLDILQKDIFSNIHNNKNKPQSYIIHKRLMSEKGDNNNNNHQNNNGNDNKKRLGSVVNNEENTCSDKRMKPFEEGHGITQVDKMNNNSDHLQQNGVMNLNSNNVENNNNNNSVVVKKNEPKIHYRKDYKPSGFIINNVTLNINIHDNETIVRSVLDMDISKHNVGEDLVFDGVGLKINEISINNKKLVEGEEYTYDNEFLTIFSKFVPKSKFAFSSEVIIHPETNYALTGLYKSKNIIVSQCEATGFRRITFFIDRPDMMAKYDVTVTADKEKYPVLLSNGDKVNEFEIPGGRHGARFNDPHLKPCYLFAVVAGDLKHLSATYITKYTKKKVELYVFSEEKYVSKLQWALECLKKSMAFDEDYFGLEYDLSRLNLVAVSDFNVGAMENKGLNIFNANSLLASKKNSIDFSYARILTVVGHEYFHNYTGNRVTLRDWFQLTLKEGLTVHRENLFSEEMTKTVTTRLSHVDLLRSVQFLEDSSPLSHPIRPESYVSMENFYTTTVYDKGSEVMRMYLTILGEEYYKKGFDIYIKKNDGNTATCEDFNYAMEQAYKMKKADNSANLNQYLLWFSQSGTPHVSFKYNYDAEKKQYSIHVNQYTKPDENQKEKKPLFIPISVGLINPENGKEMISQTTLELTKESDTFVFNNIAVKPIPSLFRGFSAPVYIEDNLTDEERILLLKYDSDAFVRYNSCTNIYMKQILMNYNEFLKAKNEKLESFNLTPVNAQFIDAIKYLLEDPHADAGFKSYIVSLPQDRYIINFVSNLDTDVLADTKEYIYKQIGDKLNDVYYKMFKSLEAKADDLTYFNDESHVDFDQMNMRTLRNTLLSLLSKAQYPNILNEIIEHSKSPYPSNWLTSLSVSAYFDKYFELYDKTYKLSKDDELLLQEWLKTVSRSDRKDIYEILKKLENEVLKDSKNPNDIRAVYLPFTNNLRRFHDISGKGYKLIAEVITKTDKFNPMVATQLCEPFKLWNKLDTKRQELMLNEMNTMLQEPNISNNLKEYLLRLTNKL

Leucine aminopeptidase = biological target: T3, Leucine aminopeptidase (Plasmodium falciparum 3D7, UniProt Q8IL11); assay: P. falciparum M17LAP inhibitors, primary screen, biochemical, fluorogenic H-Leu-NHMec substrate, 1536-well (AID 1619); type: functional
T3 sequence (Q8IL11 whole entry): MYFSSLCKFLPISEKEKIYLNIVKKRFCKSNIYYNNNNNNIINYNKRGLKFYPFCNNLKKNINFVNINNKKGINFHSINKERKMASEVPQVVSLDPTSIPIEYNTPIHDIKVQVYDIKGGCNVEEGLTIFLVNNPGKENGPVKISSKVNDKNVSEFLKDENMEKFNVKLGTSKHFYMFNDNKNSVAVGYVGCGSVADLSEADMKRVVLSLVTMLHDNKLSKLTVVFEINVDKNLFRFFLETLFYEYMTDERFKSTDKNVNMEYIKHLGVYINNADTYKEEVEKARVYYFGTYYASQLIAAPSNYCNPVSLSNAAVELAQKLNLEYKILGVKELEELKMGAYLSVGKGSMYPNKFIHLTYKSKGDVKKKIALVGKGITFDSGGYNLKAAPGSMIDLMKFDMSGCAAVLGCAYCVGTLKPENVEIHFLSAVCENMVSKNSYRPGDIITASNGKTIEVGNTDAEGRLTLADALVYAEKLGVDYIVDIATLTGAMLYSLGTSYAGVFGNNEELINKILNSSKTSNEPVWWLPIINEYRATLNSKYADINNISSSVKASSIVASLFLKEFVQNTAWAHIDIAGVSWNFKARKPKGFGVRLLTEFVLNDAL

Streptococcus = assay: Group A Streptococcus viability loss, dose response, counter-screen for streptokinase expression inhibitor project, luminescence, BacTiterGlo (AID 1915); type: functional, organism-based;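 note: potency for reduction of bacterial viability or growth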
Streptokinase A = biological target: T4, Streptokinase A (Streptococcus pyogenes serotype M1, UniProt P10520); assay: S. pyogenes streptokinase expression inhibitors, potency, dose response, plasminogen activation absorbance, OD405 (AID 1914); type: functional, Streptococcus pyogenes M1 GAS;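 note: secreted streptokinase activity via plasminogen activation per viability signal from cell pellet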
T4 sequence (P10520 whole entry): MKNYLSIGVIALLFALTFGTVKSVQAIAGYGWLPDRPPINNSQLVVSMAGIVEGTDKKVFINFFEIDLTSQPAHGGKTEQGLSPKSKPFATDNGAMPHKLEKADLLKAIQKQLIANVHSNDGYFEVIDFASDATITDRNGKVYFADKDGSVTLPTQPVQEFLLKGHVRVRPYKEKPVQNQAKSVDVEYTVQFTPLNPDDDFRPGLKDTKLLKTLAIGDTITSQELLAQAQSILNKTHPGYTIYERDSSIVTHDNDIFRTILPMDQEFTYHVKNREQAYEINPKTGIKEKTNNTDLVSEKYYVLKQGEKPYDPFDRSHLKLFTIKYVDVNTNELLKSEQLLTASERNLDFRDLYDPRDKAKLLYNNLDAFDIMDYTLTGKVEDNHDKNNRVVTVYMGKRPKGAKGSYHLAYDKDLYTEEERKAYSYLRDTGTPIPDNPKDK

[2] = test system: Streptococcus sp. 'group A'; assay: growth inhibition of control SK(-) GAS strain, dose response, counter-screen for streptokinase expression inhibitor project, luminescence, kanamycin, BacTiterGlo, confirmation (AID 1900); type: functional, organism-based
[3] = biological target: Peroxisome proliferator-activated receptor gamma/Nuclear receptor coactivator 1 (Homo sapiens, UniProt P37231); type: functional;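 note: agonist potency as compounds enhance coactivator SRC-1 recruitment to PPARgamma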
[4] = biological target: Peroxisome proliferator-activated receptor gamma/Nuclear receptor coactivator 3 (Homo sapiens, UniProt P37231); type: functional;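 note: agonist potency for raising coactivator recruitment to the receptor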
[5] = biological target: Peroxisome proliferator-activated receptor gamma/Nuclear receptor coactivator 2 (Homo sapiens, UniProt P37231); type: functional;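 note: agonist potency for raising coactivator recruitment to the receptor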
Sequence of Peroxisome proliferator-activated receptor gamma/Nuclear receptor coactivator 2 (P37231 whole entry): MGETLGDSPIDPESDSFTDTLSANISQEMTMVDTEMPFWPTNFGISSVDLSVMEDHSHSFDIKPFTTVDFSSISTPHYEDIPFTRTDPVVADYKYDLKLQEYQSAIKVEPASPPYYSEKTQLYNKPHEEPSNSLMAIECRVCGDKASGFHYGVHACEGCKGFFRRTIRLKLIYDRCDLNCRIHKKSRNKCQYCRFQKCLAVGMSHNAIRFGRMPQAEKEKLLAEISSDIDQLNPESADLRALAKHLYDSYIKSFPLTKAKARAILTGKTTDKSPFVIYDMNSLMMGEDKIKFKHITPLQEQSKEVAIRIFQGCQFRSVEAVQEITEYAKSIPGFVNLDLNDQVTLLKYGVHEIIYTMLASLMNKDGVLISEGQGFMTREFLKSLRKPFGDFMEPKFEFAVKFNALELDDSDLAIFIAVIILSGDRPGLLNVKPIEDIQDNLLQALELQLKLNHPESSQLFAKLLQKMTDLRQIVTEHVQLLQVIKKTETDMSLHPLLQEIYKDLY
Sequence of Peroxisome proliferator-activated receptor gamma/Nuclear receptor coactivator 2 (Q15596 whole entry, further chain): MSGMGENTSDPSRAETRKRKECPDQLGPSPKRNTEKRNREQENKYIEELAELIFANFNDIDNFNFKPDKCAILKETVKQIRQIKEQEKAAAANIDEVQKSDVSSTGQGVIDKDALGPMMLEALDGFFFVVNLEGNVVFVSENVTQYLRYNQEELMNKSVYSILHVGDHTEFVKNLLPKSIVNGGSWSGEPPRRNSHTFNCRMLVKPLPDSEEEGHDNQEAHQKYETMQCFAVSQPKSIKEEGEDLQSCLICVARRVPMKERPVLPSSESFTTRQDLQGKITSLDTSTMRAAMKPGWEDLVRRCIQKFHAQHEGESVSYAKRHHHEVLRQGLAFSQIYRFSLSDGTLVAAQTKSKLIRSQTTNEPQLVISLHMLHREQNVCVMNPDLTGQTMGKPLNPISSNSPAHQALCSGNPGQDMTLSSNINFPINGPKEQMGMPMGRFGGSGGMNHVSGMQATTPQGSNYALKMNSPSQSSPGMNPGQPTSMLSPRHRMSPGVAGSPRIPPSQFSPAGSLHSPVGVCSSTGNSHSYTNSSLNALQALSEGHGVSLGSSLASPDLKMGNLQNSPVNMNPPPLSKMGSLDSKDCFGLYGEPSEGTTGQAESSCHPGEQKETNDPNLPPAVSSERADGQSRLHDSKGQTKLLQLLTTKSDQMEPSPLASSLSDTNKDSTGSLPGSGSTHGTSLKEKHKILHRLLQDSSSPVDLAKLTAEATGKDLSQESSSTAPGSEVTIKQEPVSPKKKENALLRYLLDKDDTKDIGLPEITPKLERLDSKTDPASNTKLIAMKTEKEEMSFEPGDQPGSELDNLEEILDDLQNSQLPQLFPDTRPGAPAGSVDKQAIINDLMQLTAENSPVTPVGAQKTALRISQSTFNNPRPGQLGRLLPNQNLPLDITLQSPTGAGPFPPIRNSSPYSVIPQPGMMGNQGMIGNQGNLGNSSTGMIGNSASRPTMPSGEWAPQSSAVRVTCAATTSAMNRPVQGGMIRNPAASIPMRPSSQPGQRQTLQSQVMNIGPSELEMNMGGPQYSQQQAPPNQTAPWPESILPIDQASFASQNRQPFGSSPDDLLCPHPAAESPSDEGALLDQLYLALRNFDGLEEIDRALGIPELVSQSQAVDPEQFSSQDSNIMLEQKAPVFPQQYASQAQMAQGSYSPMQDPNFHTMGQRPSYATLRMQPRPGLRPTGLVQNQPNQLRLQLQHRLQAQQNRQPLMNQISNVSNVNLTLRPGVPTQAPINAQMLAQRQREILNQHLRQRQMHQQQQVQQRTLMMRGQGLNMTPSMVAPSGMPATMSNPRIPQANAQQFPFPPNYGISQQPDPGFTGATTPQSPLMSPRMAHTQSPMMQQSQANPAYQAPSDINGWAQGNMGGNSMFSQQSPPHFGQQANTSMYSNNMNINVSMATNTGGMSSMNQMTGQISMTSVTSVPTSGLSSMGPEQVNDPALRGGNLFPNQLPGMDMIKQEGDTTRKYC

Sequence of Large T antigen (P03070 whole entry): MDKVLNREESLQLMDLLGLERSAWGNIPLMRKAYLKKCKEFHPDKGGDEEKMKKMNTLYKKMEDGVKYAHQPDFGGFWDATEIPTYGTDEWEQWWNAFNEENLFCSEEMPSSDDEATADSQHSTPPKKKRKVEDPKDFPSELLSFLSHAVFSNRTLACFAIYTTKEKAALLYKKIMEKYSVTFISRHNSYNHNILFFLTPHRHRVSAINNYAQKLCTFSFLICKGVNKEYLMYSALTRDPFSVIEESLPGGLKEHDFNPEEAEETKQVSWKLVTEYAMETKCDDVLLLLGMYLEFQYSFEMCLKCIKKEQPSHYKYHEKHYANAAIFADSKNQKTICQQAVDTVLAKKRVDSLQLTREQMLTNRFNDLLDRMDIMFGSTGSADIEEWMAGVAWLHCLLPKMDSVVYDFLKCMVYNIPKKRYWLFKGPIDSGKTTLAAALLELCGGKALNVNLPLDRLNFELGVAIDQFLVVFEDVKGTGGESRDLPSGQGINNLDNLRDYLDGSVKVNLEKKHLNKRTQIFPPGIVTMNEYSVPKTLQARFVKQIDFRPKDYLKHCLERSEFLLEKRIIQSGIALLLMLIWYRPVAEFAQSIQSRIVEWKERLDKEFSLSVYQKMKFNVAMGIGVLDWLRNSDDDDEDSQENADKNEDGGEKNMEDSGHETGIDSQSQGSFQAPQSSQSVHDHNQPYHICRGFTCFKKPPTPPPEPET
Sequence of Peroxisome proliferator-activated receptor gamma/Nuclear receptor coactivator 3 (P37231 whole entry): as the sequence (P37231 whole entry) above
Sequence of Peroxisome proliferator-activated receptor gamma/Nuclear receptor coactivator 3 (Q9Y6Q9 whole entry, further chain): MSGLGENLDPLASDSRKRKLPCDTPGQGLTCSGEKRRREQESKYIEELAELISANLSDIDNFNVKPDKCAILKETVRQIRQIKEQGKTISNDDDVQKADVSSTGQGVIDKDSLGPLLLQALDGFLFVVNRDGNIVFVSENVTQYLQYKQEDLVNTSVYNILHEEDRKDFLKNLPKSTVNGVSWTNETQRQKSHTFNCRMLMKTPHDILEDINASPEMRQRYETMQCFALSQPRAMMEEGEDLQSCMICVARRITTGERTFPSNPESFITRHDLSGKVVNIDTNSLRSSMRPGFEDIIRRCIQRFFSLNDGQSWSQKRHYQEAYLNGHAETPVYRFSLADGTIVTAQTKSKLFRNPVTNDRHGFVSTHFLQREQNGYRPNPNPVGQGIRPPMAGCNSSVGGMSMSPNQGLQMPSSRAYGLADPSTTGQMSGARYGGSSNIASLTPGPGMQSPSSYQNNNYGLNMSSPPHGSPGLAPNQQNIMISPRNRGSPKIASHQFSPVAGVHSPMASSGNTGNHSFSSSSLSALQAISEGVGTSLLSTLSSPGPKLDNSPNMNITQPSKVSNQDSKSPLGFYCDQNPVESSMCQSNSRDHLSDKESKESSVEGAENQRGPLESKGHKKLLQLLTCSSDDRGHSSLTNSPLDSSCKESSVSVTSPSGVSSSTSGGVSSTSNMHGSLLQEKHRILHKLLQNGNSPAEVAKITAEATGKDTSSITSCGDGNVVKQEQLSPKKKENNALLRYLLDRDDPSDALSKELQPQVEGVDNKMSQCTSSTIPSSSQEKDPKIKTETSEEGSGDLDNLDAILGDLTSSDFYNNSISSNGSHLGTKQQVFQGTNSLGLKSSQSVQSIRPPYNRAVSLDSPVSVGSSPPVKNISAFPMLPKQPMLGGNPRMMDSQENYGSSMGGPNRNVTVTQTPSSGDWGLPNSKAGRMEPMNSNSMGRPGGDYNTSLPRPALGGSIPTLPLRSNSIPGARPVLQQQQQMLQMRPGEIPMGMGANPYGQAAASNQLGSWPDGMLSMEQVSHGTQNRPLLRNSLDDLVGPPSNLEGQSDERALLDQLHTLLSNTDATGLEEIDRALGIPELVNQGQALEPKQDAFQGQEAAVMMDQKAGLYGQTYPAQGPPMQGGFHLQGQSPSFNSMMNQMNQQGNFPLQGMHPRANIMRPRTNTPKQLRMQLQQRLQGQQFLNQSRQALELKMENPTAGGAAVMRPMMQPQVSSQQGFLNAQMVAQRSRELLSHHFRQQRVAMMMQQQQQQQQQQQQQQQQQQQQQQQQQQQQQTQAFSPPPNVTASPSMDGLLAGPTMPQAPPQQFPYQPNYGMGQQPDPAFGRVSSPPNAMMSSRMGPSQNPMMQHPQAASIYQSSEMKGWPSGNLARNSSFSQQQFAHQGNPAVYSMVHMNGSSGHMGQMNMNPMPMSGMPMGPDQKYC

Compound	IC50 (Large T antigen)	IC50 (Aminopeptidase N)	IC50 (Leucine aminopeptidase)	also measured
CSC1=NSC2=NC(=O)/C(=C\c3coc4ccccc4c3=O)C(=N)N12	67.1 µM (active)			AC50 [1]: 11.7 µM (active)
OC[C@H]1O[C@@H](Oc2cc(O)cc(/C=C/c3ccc(O)cc3)c2)[C@H](O)[C@@H](O)[C@@H]1O [PICEID]	11.2 µM (active)			
CCCSc1nnc(NC(=O)c2nc(SC)ncc2Cl)s1		109 µM (active)	34.2 µM (active)	
Cc1csc(NC(=O)COCC(=O)O)c1-c1nc2ccccc2s1		17.1 µM (active)	35.1 µM (active)	EC50 (Streptococcus): 22.3 µM (active); EC50 (Streptokinase A): > 150 µM (not active); EC50 [2]: 5.48 µM (active)
CCc1nnc(NS(=O)(=O)c2ccc(NC(=S)NC(=O)/C=C/c3cccs3)cc2)s1		79.4 µM (active)	9.13 µM (active)	EC50 [3]: > 79.4 µM (not active); EC50 [4]: > 79.4 µM (not active); EC50 [5]: > 79.4 µM (not active)
CCN(CC)CCCCN1c2ccccc2Sc2ccccc21	14.2 µM (active)			
